Measurements published in the supplement of paper PMC10331698.
± gives the standard deviation of the averaged measurements.

What was measured:
Test in all cases: level (log10 ratio to DMSO vehicle control); higher = higher biomarker level / cell amount than vehicle control
[1] = compound: C[C@@H]1C[C@H]2[C@@H]3CCC4=CC(=O)C=C[C@]4(C)[C@@]3(F)[C@@H](O)C[C@]2(C)[C@@]1(O)C(=O)COP(=O)(O)O [Dexamethasone sodium phosphate] (in DMSO)
Method: (§1)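 BioMAP Diversity Plus panel of 12 human primary cell co-culture systems (3C, 4H, LPS, SAg, BT, BF4T, BE3C, CASM3C, HDF3CGF, KF3CT, MyoF, Mphg). Compounds were added 1 h before stimulation and left for 24 h (MyoF 48 h; BT 72 h for soluble read-outs or 6 d for IgG). Biomarkers were read by ELISA, cytotoxicity by SRB, PBMC viability and proliferation by Alamar Blue. Each well value was divided by the mean of 8 DMSO control wells on the same plate and log10 transformed; duplicate blinded samples were tested at 4 concentrations.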

[2] = compound: NS(=O)(=O)C(F)(F)C(F)(F)C(F)(F)C(F)(F)C(F)(F)C(F)(F)C(F)(F)C(F)(F)F [Perfluorooctanesulfonamide] (in DMSO)
Method: as §1

[3] = compound: O=C(O)C(F)(F)C(F)(F)C(F)(F)OC(F)(F)F [Perfluoro(4-methoxybutanoic) acid] (in DMSO)
Method: as §1

[4] = compound: O=C(O)C(F)(OC(F)(F)C(F)(F)C(F)(F)F)C(F)(F)F [Ammonium perfluoro-2-methyl-3-oxahexanoate] (in Water)
Method: as §1

[5] = compound: O=C(O)C=C(C(F)(F)F)C(F)(F)F [3,3-Bis(trifluoromethyl)-2-propenoic acid] (in DMSO)
Method: as §1

[6] = compound: OCC(F)(F)C(F)(F)C(F)(F)C(F)F [1H,1H,5H-Perfluoropentanol] (in DMSO)
Method: as §1

Test System	level (log10) ([1]; 1500 nM)	level (log10) ([1]; 4400 nM)	level (log10) ([1]; 13000 nM)	level (log10) ([1]; 40000 nM)	level (log10) ([2]; 6700 nM)	level (log10) ([2]; 20000 nM)	level (log10) ([3]; 6700 nM)	level (log10) ([3]; 20000 nM)	level (log10) ([3]; 60000 nM)	level (log10) ([4]; 6700 nM)	level (log10) ([4]; 20000 nM)	level (log10) ([4]; 60000 nM)	level (log10) ([5]; 6700 nM)	level (log10) ([5]; 20000 nM)	level (log10) ([5]; 60000 nM)	level (log10) ([6]; 6700 nM)	level (log10) ([6]; 20000 nM)	level (log10) ([6]; 60000 nM)
CASM3C:CD141/Thrombomodulin	0.107 ± 0.11	0.0895 ± 0.067	0.073 ± 0.041	0.123 ± 0.011	0 ± 0.0085	0.0505 ± 0.0078	0.001 ± 0.035	0.007 ± 0.035	-0.011 ± 0.044	0.113 ± 0.0057	0.0435 ± 0.11	0.035 ± 0.038	0.03 ± 0.0071	0.0275 ± 0.0064	0.026 ± 0.0028	0.046	0.018 ± 0.017	0.032 ± 0.023
CASM3C:CD142/Tissue Factor	0.101 ± 0.034	0.099 ± 0.042	0.0875 ± 0.023	0.079 ± 0.0028	0.021 ± 0.011	0.082 ± 0.04	0.0005 ± 0.018	-0.0175 ± 0.011	-0.051 ± 0.018	0.022 ± 0.013	-0.0045 ± 0.028	-0.009 ± 0.089	0.055 ± 0.018	-0.009 ± 0.041	-0.0635 ± 0.06	-0.0605 ± 0.044	-0.0695 ± 0.035	-0.0195 ± 0.094
CASM3C:CXCL8/IL-8	-0.075 ± 0.044	-0.0815 ± 0.023	-0.092 ± 0.0057	-0.084 ± 0.0042	-0.0055 ± 0.0035	-0.0125 ± 0.0035	0.002 ± 0.0099	-0.0065 ± 0.013	0.0165 ± 0.011	0.005 ± 0.0042	0.034 ± 0.024	0.056 ± 0.024	-0.0025 ± 0.0021	-0.0045 ± 0.005	0.0125 ± 0.022	-0.0025 ± 0.021	0.0065 ± 0.047	0.015 ± 0.059
CASM3C:CXCL9/MIG	0.0525 ± 0.037	0.038 ± 0.0085	0.0335 ± 0.0021	0.0595 ± 0.025	-0.0005 ± 0.011	-0.0305 ± 0.022	-0.0025 ± 0.016	-0.0105 ± 0.0078	0.015 ± 0.0028	0.039 ± 0.038	0.05 ± 0.0071	0.0595 ± 0.015	-0.059 ± 0.051	-0.0845 ± 0.022	-0.0965 ± 0.087	0.021 ± 0.03	0.0095 ± 0.037	0.0005 ± 0.093
CASM3C:HLA-DR	0.0495 ± 0.06	0.0425 ± 0.022	0.02 ± 0.013	0.0355 ± 0.023	-0.0045 ± 0.012	-0.004 ± 0.0085	-0.016 ± 0.014	-0.006 ± 0.023	-0.0095 ± 0.00071	0.0195 ± 0.054	0.01 ± 0.059	0.004 ± 0.0071	-0.121 ± 0.0028	-0.167 ± 0.0085	-0.181 ± 0.067	0.016 ± 0.0028	-0.014 ± 0.064	0.035 ± 0.025
CASM3C:IL-6	-0.166 ± 0.096	-0.232 ± 0.023	-0.246 ± 0.015	-0.189 ± 0.092	-0.0275 ± 0.018	-0.023 ± 0.014	-0.0215 ± 0.015	-0.0205 ± 0.016	-0.001 ± 0.031	0.0075 ± 0.005	-0.052 ± 0.042	-0.0375 ± 0.047	-0.097 ± 0.045	-0.148 ± 0.0071	-0.189 ± 0.026	0.001 ± 0.041	-0.0005 ± 0.021	0.0255 ± 0.036
CASM3C:LDLR	0.05 ± 0.0057	0.03 ± 0.033	0.0065 ± 0.03	0.031 ± 0.05	-0.0095 ± 0.011	-0.0165 ± 0.0078	-0.0135 ± 0.011	-0.0245 ± 0.023	0.0035 ± 0.044	-0.061 ± 0.057	-0.032 ± 0.04	-0.0545 ± 0.021	-0.008 ± 0.011	-0.0175 ± 0.0064	-0.022 ± 0.016	-0.0555 ± 0.086	-0.0425 ± 0.044	-0.0125 ± 0.00071
CASM3C:M-CSF	0.157 ± 0.031	0.155 ± 0.023	0.141 ± 0.0085	0.151 ± 0.0092	0.022	0.04 ± 0.0099	-0.027 ± 0.021	-0.035 ± 0.021	0.029 ± 0.034	-0.049 ± 0.016	-0.0405 ± 0.0092	-0.0405 ± 0.022	-0.0435 ± 0.0035	-0.044 ± 0.02	-0.068 ± 0.033	0.025 ± 0.024	-0.0195 ± 0.022	0.0045 ± 0.063
CASM3C:PAI-I	0.011 ± 0.018	0.0125 ± 0.018	0.0145 ± 0.015	0.015 ± 0.0028	0.012 ± 0.0057	0.0055 ± 0.011	-0.0015 ± 0.0021	0.0005 ± 0.0035	0.0095 ± 0.0064	-0.007 ± 0.0085	-0.0005 ± 0.0092	-0.0025 ± 0.013	-0.0115 ± 0.012	-0.019 ± 0.0057	-0.0145 ± 0.012	-0.008 ± 0.0028	-0.0015 ± 0.0035	0.005 ± 0.0071
CASM3C:Proliferation	0.084 ± 0.025	0.033 ± 0.024	0.062 ± 0.025	0.059 ± 0.0042	-0.027 ± 0.0085	0.0415 ± 0.032	0.0025 ± 0.076	-0.051 ± 0.047	-0.0245 ± 0.069	-0.07 ± 0.085	-0.095 ± 0.02	-0.104 ± 0.065	-0.0475 ± 0.0035	-0.0555 ± 0.015	-0.177 ± 0.06	-0.018 ± 0.055	0.0175 ± 0.07	-0.0245 ± 0.03
CASM3C:SRB	-0.0005 ± 0.016	-0.008 ± 0.017	-0.013 ± 0.0057	-0.0115 ± 0.00071	0.0075 ± 0.011	-0.0075 ± 0.0021	-0.001 ± 0.0014	-0.001 ± 0.0028	-0.0045 ± 0.011	-0.007 ± 0.0057	-0.008 ± 0.0014	-0.0105 ± 0.0064	0.0145 ± 0.016	-0.0075 ± 0.0021	-0.027	0.0025 ± 0.0035	0.0015 ± 0.0021	0.0045 ± 0.00071
CASM3C:Serum Amyloid A	0.489 ± 0.034	0.473 ± 0.015	0.4675 ± 0.0021	0.469 ± 0.022	0.0055 ± 0.028	0.012 ± 0.047	-0.0435 ± 0.015	-0.0465 ± 0.0064	-0.0075 ± 0.081	-0.031 ± 0.04	-0.034 ± 0.03	-0.0005 ± 0.049	-0.013 ± 0.021	-0.0185 ± 0.0092	-0.005 ± 0.038	-0.077 ± 0.014	-0.058 ± 0.044	-0.0135 ± 0.049
HDF3CGF:CCL2/MCP-1	-0.015 ± 0.035	-0.0405 ± 0.023	-0.038 ± 0.0099	-0.044 ± 0.0085	-0.0105 ± 0.0064	-0.567 ± 0.14	0.0035 ± 0.035	0.012 ± 0.018	0.019 ± 0.064	0.011 ± 0.025	0.0285 ± 0.0021	0.019 ± 0.0028	-0.0775 ± 0.052	-0.0935 ± 0.056	-0.084 ± 0.028	-0.046 ± 0.027	-0.014 ± 0.068	-0.0225 ± 0.047
HDF3CGF:CD54/ICAM-1	0.004 ± 0.0057	0.029 ± 0.042	0.01 ± 0.038	0.026 ± 0.013	-0.021 ± 0.0042	-0.88 ± 0.26	-0.0185 ± 0.0078	-0.0275 ± 0.0064	-0.0215 ± 0.0092	-0.0075 ± 0.015	-0.0245 ± 0.005	-0.0555 ± 0.012	0.033 ± 0.035	0.032 ± 0.027	0.0555 ± 0.021	0	-0.01 ± 0.0014	0.009 ± 0.023
HDF3CGF:CD106/VCAM-1	-0.006 ± 0.057	-0.0145 ± 0.035	-0.054 ± 0.045	-0.121 ± 0.073	-0.147 ± 0.027	-0.364 ± 0.023	-0.01 ± 0.027	-0.0185 ± 0.011	-0.036 ± 0.059	-0.039 ± 0.021	-0.044 ± 0.027	-0.131 ± 0.016	-0.0485 ± 0.021	-0.0795 ± 0.005	-0.17 ± 0.013	-0.0535 ± 0.015	0.023 ± 0.048	0.0145 ± 0.043
HDF3CGF:CXCL8/IL-8	-0.039 ± 0.014	-0.0725 ± 0.005	-0.0645 ± 0.018	-0.0515 ± 0.039	0.004 ± 0.0085	-0.204 ± 0.11	0.005 ± 0.0057	0.0015 ± 0.00071	0.008	-0.0135 ± 0.015	0.001 ± 0.011	0.0045 ± 0.0035	0.008 ± 0.0014	-0.001	0.022 ± 0.011	-0.0045 ± 0.0064	-0.002 ± 0.0014	0.0095 ± 0.032
